Reference: publication PMC7311426, “An amphipathic peptide with antibiotic activity against multidrug-resistant Gram-negative bacteria” (Nature Communications, 2020)

What was measured:
Experiment in all cases: microbe, parasite or virus in culture
[1] = test system: P. aeruginosa; conditions: P. aeruginosa UNT 138-1 spontaneous mutant
Summary of the method: (§1)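 Broth microdilution in MHB, 2-fold 12-point series from 128 or 64 down to 0.06 or 0.03 μg mL^−1, 5 × 10^5 CFU mL^−1. Extra runs in CAMHB per CLSI and in MHB with 1% agarose; n ≥ 6.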

[2] = test system: E. coli
Summary of the method: as §1

[3] = test system: K. pneumoniae
Summary of the method: as §1

Measured: MIC, broth microdilution

CN(C)c1cc(NC(=O)CNC(C)(C)C)c(O)c2c1C[C@H]1C[C@H]3[C@H](N(C)C)C(O)=C(C(N)=O)C(=O)[C@@]3(O)C(O)=C1C2=O [TIG]
16, 16 µg/mL: [1]; AA139 selection 4X, plate 1, colony 5, drug-free passage 5 | [1]; AA139 selection 4X, plate 1, colony 6, drug-free passage 1 | [1]; AA139 selection 4X, plate 1, colony 6, drug-free passage 5 | [1]; AA139 selection 4X, plate 1, colony 7, drug-free passage 1 | [1]; AA139 selection 4X, plate 1, colony 7, drug-free passage 5 | [1]; AA139 selection 4X, plate 2, colony 1, drug-free passage 1 | [1]; AA139 selection 4X, plate 2, colony 1, drug-free passage 5 | [1]; AA139 selection 4X, plate 2, colony 2, drug-free passage 1 | [1]; AA139 selection 4X, plate 2, colony 2, drug-free passage 5 | [1]; AA139 selection 4X, plate 2, colony 3, drug-free passage 1 | [1]; AA139 selection 4X, plate 2, colony 3, drug-free passage 5 | [1]; AA139 selection 4X, plate 2, colony 4, drug-free passage 1 | [1]; AA139 selection 4X, plate 2, colony 4, drug-free passage 5 | [1]; AA139 selection 4X, plate 2, colony 5, drug-free passage 1 | [1]; AA139 selection 4X, plate 2, colony 5, drug-free passage 5 | [1]; AA139 selection 4X, plate 2, colony 6, drug-free passage 1 | [1]; AA139 selection 4X, plate 2, colony 6, drug-free passage 5 | [1]; AA139 selection 8X, plate 1, colony 5, drug-free passage 1 | [1]; AA139 selection 8X, plate 1, colony 5, drug-free passage 5 | [1]; AA139 selection 8X, plate 2, colony 1, drug-free passage 1 | [1]; AA139 selection 8X, plate 2, colony 1, drug-free passage 5
0.5, 0.5 µg/mL: [3]; K. pneumoniae 3010 spontaneous mutant, AA139 selection 4X, plate 1, colony 1, drug-free passage 1 | [3]; K. pneumoniae 3010 spontaneous mutant, AA139 selection 4X, plate 1, colony 1, drug-free passage 5 | [3]; K. pneumoniae 3010 spontaneous mutant, AA139 selection 8X, plate 1, colony 1, drug-free passage 1 | [3]; K. pneumoniae 3010 spontaneous mutant, AA139 selection 8X, plate 1, colony 1, drug-free passage 5 | [3]; K. pneumoniae ST258 spontaneous mutant, AA139 selection 4X, plate 1, colony 1, drug-free passage 1 | [3]; K. pneumoniae ST258 spontaneous mutant, AA139 selection 4X, plate 1, colony 1, drug-free passage 5
8 µg/mL: [1]; AA139 selection 4X, plate 2, colony 7, drug-free passage 1 | [1]; AA139 selection 8X, plate 1, colony 1, drug-free passage 1 | [1]; AA139 selection 8X, plate 1, colony 2, drug-free passage 1 | [1]; AA139 selection 8X, plate 1, colony 3, drug-free passage 1 | [1]; AA139 selection 8X, plate 1, colony 4, drug-free passage 1
0.5 µg/mL: [2]; E. coli AUD172 spontaneous mutant, AA139 selection 4X, plate 2, colony 2, drug-free passage 5 | [3]; K. pneumoniae 3010 parent strain not exposed to drug | [3]; K. pneumoniae ST258 parent strain not exposed to drug
0.12 µg/mL: [2]; E. coli AUD172 parent strain not exposed to drug | [2]; E. coli AUD172 spontaneous mutant, AA139 selection 4X, plate 2, colony 2, drug-free passage 1
16 µg/mL: [1]; AA139 selection 4X, plate 2, colony 7, drug-free passage 5 | [1]; AA139 selection 8X, plate 1, colony 1, drug-free passage 5 | [1]; AA139 selection 8X, plate 1, colony 2, drug-free passage 5 | [1]; AA139 selection 8X, plate 1, colony 3, drug-free passage 5 | [1]; AA139 selection 8X, plate 1, colony 4, drug-free passage 5
